What all share (assay type): biochemical
The target in one assay is T1, KRAS G12D (Homo sapiens, UniProt P01116, G12D).
T1 construct: made in house; host or cells: E. coli, e.g. BL21 (DE3)
Put plainly: HTRF KRAS-SOS1 interaction assay, KRAS G12D. To be noted: binned ≤2 μM / >2 μM, read-out: Inhibition of KRAS G12D (IC50). The essentials: (§1)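 Read-out: HTRF ratio 665/620 nm after ≥10 min incubation of compound with GST-KRAS/anti-GST-Eu and His-hSOS1/anti-6His-XL665. Duplicate dose series, 10 μM down to 0.01 μM. Buffer HEPES pH 7.4, NaCl, DTT, BSA, Igepal.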
(In TR-FRET formats the signal depends on donor and acceptor labels being close together.)

Another assay has as its target T2, KRAS WT (Homo sapiens, UniProt P01116).
T2 construct: made in house; host or cells: E. coli, e.g. BL21 (DE3)
Put plainly: HTRF KRAS-SOS1 interaction assay, wildtype KRAS. The note with it: binned ≤2 μM / >2 μM, read-out: Inhibition of KRAS WT (IC50). The essentials: as §1

The target of another assay is T3, KRAS G12V (Homo sapiens, UniProt P01116, G12V).
T3 construct: made in house; host or cells: E. coli, e.g. BL21 (DE3)
Put plainly: HTRF KRAS-SOS1 interaction assay, KRAS G12V. The note with it: binned ≤2 μM / >2 μM, read-out: Inhibition of KRAS G12V (IC50). Put shortly: as §1

A further assay concerns the target T4, KRAS G12S (Homo sapiens, UniProt P01116, G12S).
T4 construct: made in house; host or cells: E. coli, e.g. BL21 (DE3)
Put plainly: HTRF KRAS-SOS1 interaction assay, KRAS G12S. The note with it: binned ≤2 μM / >2 μM, read-out: Inhibition of KRAS G12S (IC50). The essentials: as §1

A word on the IC50: it is the concentration needed to halve the response being measured.

T1 sequence (P01116 1-188 isoform P01116-2 G12D): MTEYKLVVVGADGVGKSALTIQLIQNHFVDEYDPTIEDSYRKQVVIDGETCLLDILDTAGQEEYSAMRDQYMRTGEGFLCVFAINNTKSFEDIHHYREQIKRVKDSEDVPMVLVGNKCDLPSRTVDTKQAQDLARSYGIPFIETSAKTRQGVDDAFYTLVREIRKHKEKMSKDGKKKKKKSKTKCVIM
T4 sequence (P01116 1-188 isoform P01116-2 G12S): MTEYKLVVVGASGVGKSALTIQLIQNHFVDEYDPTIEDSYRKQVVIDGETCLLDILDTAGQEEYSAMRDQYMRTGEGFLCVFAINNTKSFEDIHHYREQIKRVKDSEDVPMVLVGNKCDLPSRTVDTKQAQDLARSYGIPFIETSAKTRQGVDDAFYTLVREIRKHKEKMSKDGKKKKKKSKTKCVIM
T2 sequence (P01116 1-188 isoform P01116-2): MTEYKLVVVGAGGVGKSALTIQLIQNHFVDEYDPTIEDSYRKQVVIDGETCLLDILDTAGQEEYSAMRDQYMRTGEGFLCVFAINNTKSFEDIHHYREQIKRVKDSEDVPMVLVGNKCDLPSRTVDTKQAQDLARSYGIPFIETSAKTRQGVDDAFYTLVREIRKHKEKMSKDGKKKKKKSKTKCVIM
T3 sequence (P01116 1-188 isoform P01116-2 G12V): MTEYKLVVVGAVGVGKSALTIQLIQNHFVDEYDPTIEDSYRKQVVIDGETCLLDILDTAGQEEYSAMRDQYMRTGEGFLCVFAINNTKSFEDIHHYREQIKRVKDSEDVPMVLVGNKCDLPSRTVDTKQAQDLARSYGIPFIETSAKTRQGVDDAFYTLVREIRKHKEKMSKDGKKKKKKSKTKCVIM

In the case of `C[C@H](c1nccnc1N)N1CCOc2c(C(F)(F)F)c(-c3ccc(F)c4sc(N)c(C#N)c34)c(F)c3nc(OC[C@@]45CCCN4C[C@@]4(CC4(F)F)C5)nc1c23` [Compound 773, 2-amino-4-(4-((R)-1-(3-aminopyrazin-2-yl)ethyl)-2-(((1S,7a′S)-2,2-difluorodihydro-1′H,3′H-spiro[cyclopropane-1,2′-pyrrolizin]-7a′(5′H)-yl)methoxy)-10-fluoro-8-(trifluoromethyl)-5,6-dihydro-4H-[1,4]oxazepino[5,6,7-de]quinazolin-9-yl)-7-fluorobenzo[b]thiophene-3-carbonitrile], the IC50 on KRAS G12D, on KRAS WT, on KRAS G12V and at KRAS G12S was not above 2 µM in each case.

Turning to `C[C@H](c1cccnc1N)N1CCOc2c(Cl)c(-c3ccc(F)c4sc(N)c(C#N)c34)c(F)c3nc(OC[C@@]45CCCN4C[C@H](F)C5)nc1c23` [Compound 850, 2-amino-4-(4-(1-(2-aminopyridin-3-yl)ethyl)-8-chloro-10-fluoro-2-(((2R,7aS)-2-fluorotetrahydro-1H-pyrrolizin-7a (5H)-yl)methoxy)-5,6-dihydro-4H-[1,4]oxazepino[5,6,7-de]quinazolin-9-yl)-7-fluorobenzo[b]thiophene-3-carbonitrile], the IC50 on KRAS G12D, at KRAS WT, on KRAS G12V and on KRAS G12S was not above 2 µM in each case.

Regarding `CC(=O)c1c(F)ccc2cc(O)cc(-c3nc4c5c(nc(OC[C@@H]6CCCN6C)nc5c3F)N(C(C)c3cccnc3N)CCO4)c12` (single isomer, unassigned) [Compound 750], the IC50 on KRAS G12D, on KRAS WT, on KRAS G12V and at KRAS G12S was not above 2 µM in each case.

Consider `C[C@@H]1CN(CC2(COc3nc4c5c(c(C(F)(F)F)c(-c6ccc(F)c7sc(N)c(C#N)c67)c(F)c5n3)OCCN4[C@H](C)c3cccnc3N)CC2)C[C@H](C)O1` [Compound 710, 2-amino-4-(4-((R)-1-(2-aminopyridin-3-yl)ethyl)-2-((1-(((2S,6R)-2,6-dimethylmorpholino)methyl)cyclopropyl)methoxy)-10-fluoro-8-(trifluoromethyl)-5,6-dihydro-4H-[1,4]oxazepino[5,6,7-de]quinazolin-9-yl)-7-fluorobenzo[b]thiophene-3-carbonitrile], for which the IC50 is more than 2 µM at KRAS G12D, not above 2 µM on KRAS WT, not above 2 µM on KRAS G12V and not above 2 µM at KRAS G12S.

In the case of `C[C@H](c1ccc(CN)nc1N)N1CCOc2c(Cl)c(-c3ccc(F)c4sc(N)c(C#N)c34)c(F)c3nc(OC[C@@]45CCCN4C[C@H](F)C5)nc1c23` [Compound 813, 2-amino-4-(4-((R)-1-(2-amino-6-(aminomethyl)pyridin-3-yl)ethyl)-8-chloro-10-fluoro-2-(((2R,7aS)-2-fluorotetrahydro-1H-pyrrolizin-7a(5H)-yl)methoxy)-5,6-dihydro-4H-[1,4]oxazepino[5,6,7-de]quinazolin-9-yl)-7-fluorobenzo[b]thiophene-3-carbonitrile], the IC50 at KRAS G12D, at KRAS WT, on KRAS G12V and on KRAS G12S was not above 2 µM in each case.

In the case of `C[C@H](c1cccnc1N)N1C[C@H](C)Oc2c(C(F)(F)F)c(-c3ccc(F)c4sc(N)c(C#N)c34)c(F)c3nc(OC[C@@]45CCCN4C[C@H](F)C5)nc1c23` (single isomer, unassigned) [Compound 697], the IC50 on KRAS G12D, on KRAS WT, on KRAS G12V and on KRAS G12S was not above 2 µM throughout.

`C[C@H](c1cc(Cl)cnc1N)N1CCOc2c(C(F)(F)F)c(-c3ccc(F)c4sc(N)c(C#N)c34)c(F)c3nc(OC[C@@]45CCCN4C[C@@]4(CC4(F)F)C5)nc1c23` [Compound 713, 2-amino-4-(4-((R)-1-(2-amino-5-chloropyridin-3-yl)ethyl)-2-(((1S,7a′S)-2,2-difluorodihydro-1′H,3′H-spiro[cyclopropane-1,2′-pyrrolizin]-7a′(5′H)-yl)methoxy)-10-fluoro-8-(trifluoromethyl)-5,6-dihydro-4H-[1,4]oxazepino[5,6,7-de]quinazolin-9-yl)-7-fluorobenzo[b]thiophene-3-carbonitrile]: the IC50 on KRAS G12D, at KRAS WT, on KRAS G12V and at KRAS G12S was not above 2 µM each time.

As for `CCN(CC)CCC[C@H](c1cccnc1N)N1CCOc2c(C(F)(F)F)c(-c3ccc(F)c4sc(N)c(C#N)c34)c(F)c3nc(OC[C@@]45CCCN4C[C@H](F)C5)nc1c23` (single isomer, unassigned) [Compound 806], the IC50 at KRAS G12D, on KRAS WT, at KRAS G12V and on KRAS G12S was not above 2 µM throughout.

Turning to `C=C1CN2CCC[C@@]2(COc2nc3c4c(c(C(F)(F)F)c(-c5ccc(F)c6sc(N)c(C#N)c56)c(F)c4n2)OCCN3[C@H](C)c2cc(Cl)cnc2N)C1` [Compound 690, 2-amino-4-(4-((R)-1-(2-amino-5-chloropyridin-3-yl)ethyl)-10-fluoro-2-(((S)-2-methylenetetrahydro-1H-pyrrolizin-7a(5H)-yl)methoxy)-8-(trifluoromethyl)-5,6-dihydro-4H-[1,4]oxazepino[5,6,7-de]quinazolin-9-yl)-7-fluorobenzo[b]thiophene-3-carbonitrile], the IC50 at KRAS G12D, at KRAS WT, on KRAS G12V and on KRAS G12S was not above 2 µM in each case.

As to `C[C@H](Oc1nc2c3c(nc(-c4ccc(F)c5sc(N)c(C#N)c45)c(F)c3n1)OCCN2[C@H](C)c1cccnc1N)C1CCCN1C` (single isomer, unassigned) [Compound 670], the IC50 at KRAS G12D, at KRAS WT, at KRAS G12V and at KRAS G12S was not above 2 µM in each case.

As for `N#Cc1c(N)sc2c(F)ccc(-c3c(C(F)(F)F)c4c5c(nc(OC[C@@]67CCCN6C[C@@]6(CC6(F)F)C7)nc5c3F)N([C@H](CCC3CCOCC3)c3cccnc3N)CCO4)c12` [Compound 650, 2-amino-4-(4-((R)-1-(2-aminopyridin-3-yl)-3-(tetrahydro-2H-pyran-4-yl)propyl)-2-(((1S,7a′S)-2,2-difluorodihydro-1′H,3′H-spiro[cyclopropane-1,2′-pyrrolizin]-7a′(5′H)-yl)methoxy)-10-fluoro-8-(trifluoromethyl)-5,6-dihydro-4H-[1,4]oxazepino[5,6,7-de]quinazolin-9-yl)-7-fluorobenzo[b]thiophene-3-carbonitrile], the IC50 at KRAS G12D, at KRAS WT, on KRAS G12V and on KRAS G12S was not above 2 µM in each case.

Turning to `CON=C1CN2CCC[C@@]2(COc2nc3c4c(c(C(F)(F)F)c(-c5ccc(F)c6sc(N)c(C#N)c56)c(F)c4n2)OCCN3[C@H](C)c2cccnc2N)C1` (mixture of isomers) [Compound 622, 2-amino-4 ((S)-4-((R)-1-(2-aminopyridin-3-yl)ethyl)-10-fluoro-2-(((S)-2-(methoxyimino)tetrahydro-1H-pyrrolizin-7a (5H)-yl)methoxy)-8-(trifluoromethyl)-5,6-dihydro-4H-[1,4]oxazepino[5,6,7-de]quinazolin-9-yl)-7-fluorobenzo[b]thiophene-3-carbonitrile], the IC50 at KRAS G12D, at KRAS WT, at KRAS G12V and at KRAS G12S was not above 2 µM each time.

`C=C1CN2CCC[C@@]2(COc2nc3c4c(c(C(F)(F)F)c(-c5ccc(F)c6sc(N)c(C#N)c56)c(F)c4n2)OCCN3[C@H](C)c2cccnc2N)C1` [Compound 621, 2-amino-4-(4-((R)-1-(2-aminopyridin-3-yl)ethyl)-10-fluoro-2-(((S)-2-methylenetetrahydro-1H-pyrrolizin-7a(5H)-yl)methoxy)-8-(trifluoromethyl)-5,6-dihydro-4H-[1,4]oxazepino[5,6,7-de]quinazolin-9-yl)-7-fluorobenzo[b]thiophene-3-carbonitrile]: the IC50 at KRAS G12D, on KRAS WT, at KRAS G12V and on KRAS G12S was not above 2 µM throughout.

`N#Cc1c(N)sc2c(F)ccc(-c3c(C(F)(F)F)c4c5c(nc(OC[C@@]67CCCN6[C@H](COc6nccnc6C(F)F)CC7)nc5c3F)N([C@@H](c3cccnc3N)C(F)F)CCO4)c12` (single isomer, unassigned) [Compound 605]: the IC50 at KRAS G12D, at KRAS WT, on KRAS G12V and on KRAS G12S was not above 2 µM throughout.

Take `CCON=C1CN2CCC[C@@]2(COc2nc3c4c(c(Cl)c(-c5ccc(F)c6sc(N)c(C#N)c56)c(F)c4n2)OCCN3[C@H](C)c2cccnc2N)C1` (single isomer, unassigned) [Compound 700]: the concentration for half-maximal inhibition (IC50) on KRAS G12D, at KRAS WT, at KRAS G12V and on KRAS G12S was not above 2 µM in each case.

With `Cc1cnc(N)c([C@@H](C)N2CCOc3c(C(F)(F)F)c(-c4ccc(F)c5sc(N)c(C#N)c45)c(F)c4nc(OC[C@@]56CCCN5C[C@H](F)C6)nc2c34)c1` (single isomer, unassigned) [Compound 796], the IC50 at KRAS G12D, on KRAS WT, on KRAS G12V and on KRAS G12S was not above 2 µM each time.

These data come from patent publication US12668600B2 (Kumquat Biosciences Inc., priority 2023, dated 2026).
